Here are results for ten molecules from patent EP0434364A2, “Benzodiazepine analogs for treating panic syndrome and for directly inducing analgesia” (MERCK & CO. INC., priority 1989, dated 1991).

Where two headings read alike, the source gives them in different places. Ends that are not written are not given here.

One test concerns the target T1, CCK Receptor (Pancreas) (Rattus norvegicus, UniProt P30551).
T1 construct: The whole pancreas was dissected free of fat tissue and was homogenized; from tissue; host or cells: rat whole pancreas membranes
T1 sequence (P30551 1-444): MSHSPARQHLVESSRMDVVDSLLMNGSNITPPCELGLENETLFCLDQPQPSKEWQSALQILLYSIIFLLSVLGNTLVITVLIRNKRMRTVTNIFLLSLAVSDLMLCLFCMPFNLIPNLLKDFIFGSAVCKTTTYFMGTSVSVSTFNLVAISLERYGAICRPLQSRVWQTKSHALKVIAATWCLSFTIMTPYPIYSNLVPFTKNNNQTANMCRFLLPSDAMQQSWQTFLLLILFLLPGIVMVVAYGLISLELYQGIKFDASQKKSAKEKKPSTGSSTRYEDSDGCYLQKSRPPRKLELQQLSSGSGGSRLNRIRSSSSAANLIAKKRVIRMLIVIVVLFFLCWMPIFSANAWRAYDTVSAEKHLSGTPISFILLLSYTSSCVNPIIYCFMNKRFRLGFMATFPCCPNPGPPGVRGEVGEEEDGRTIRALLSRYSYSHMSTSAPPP
Nature of the test: CCK Receptor Binding (Pancreas), inhibition of 125I-CCK-33 binding. Also noted: species or system Sprague-Dawley rats. The method, then: CCK-33 was radiolabeled with ¹²⁵I-Bolton Hunter reagent (2000 Ci/mmole) as described by Sankara et al. (J. Biol. Chem. 254: 9349-9351, 1979). Receptor binding was performed according to Innis and Snyder (Proc. Natl. Acad. Sci. 77, 6917-6921, 1980) with the minor modification of adding the additional protease inhibitors, phenylmethane sulfonyl fluoride and o-phenanthroline.
Male Sprague-Dawley rats (200-350g) were sacrificed by decapitation. The whole pancreas was dissected free of fat tissue and was homogenized in 20 volumes of ice-cold 50 mM Tris HCI (pH 7.7 at 25°C) with a Brinkmann Polytron PT 10. The homogenates were centrifuged at 48,000 g for 10 min. Pellets were resuspended in Tris Buffer, centrifuged as above and resuspended in 200 volumes of binding assay buffer (50 mM Tris HCI, pH 7.7 at 25°C, 5 mM dithiothrietol, 0.1 mM bacitracin, 1.2 mM phenylmethane sulfonyl fluoride and 0.5 mM o-phenanthroline). […] All assays were run in duplicate or triplicate. The reaction mixtures were incubated at 37°C for 30 minutes and centrifuged in a Beckman Microfuge (4 minutes) immediately after adding 1 ml of ice-cold incubation buffer. The supernatant was aspirated and discarded, pellets were counted with a Beckman gamma 5000. For Scatchard analysis (Ann. N.Y. Acad. Sci. 51: 660, 1949), ¹²⁵I-CCK-33 was progressively diluted with increasing concentrations of CCK-33.

In another test the target is T2, Gastrin Receptor (Cavia porcellus, UniProt H0VZC5).
T2 construct: The washed guinea pig gastric glands prepared as above were resuspended; from tissue; host or cells: guinea pig gastric mucosal glands (intact glands after collagenase)
T2 sequence (H0VZC5 1-426): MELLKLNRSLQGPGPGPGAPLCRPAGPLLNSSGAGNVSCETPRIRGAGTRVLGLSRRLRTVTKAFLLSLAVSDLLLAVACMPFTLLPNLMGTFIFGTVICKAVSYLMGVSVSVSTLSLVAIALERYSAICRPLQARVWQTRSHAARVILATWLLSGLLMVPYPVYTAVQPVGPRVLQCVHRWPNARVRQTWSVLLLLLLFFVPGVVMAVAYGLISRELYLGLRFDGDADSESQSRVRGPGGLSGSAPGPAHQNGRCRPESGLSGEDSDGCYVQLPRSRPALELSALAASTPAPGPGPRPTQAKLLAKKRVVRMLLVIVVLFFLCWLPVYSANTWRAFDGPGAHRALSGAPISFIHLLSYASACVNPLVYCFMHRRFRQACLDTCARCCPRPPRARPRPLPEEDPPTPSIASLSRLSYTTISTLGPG
Description: Gastrin Receptor Binding in Guinea Pig Gastric Glands (125I-gastrin).

In a further test the test system is DBA2 mice. Nature of the test: Black/white exploration test (animal model of anxiety). Format: in vivo. Conditions: for active dose range / difference in time spent in the black and white side / preference for rearing in the black side: mice; for active dose range: black/white exploration test. The text has this: The black/white exploration test [Crawley et al. Pharmacology, Biochemistry and Behav. 13, 167 (1980)] is a simple animal model of anxiety. Rodents placed in a two compartment box which consists of a brightly lit, white painted side and a dimly lit, black painted side, display a marked preference for the black side of the apparatus. This behavior is caused by the aversive properties of the brightly lit, white painted section. Classical anxiolytic drugs [such as diazepam, see Crawley, supra] and novel anxiolytic drugs [such as 5HT₃ antagonists, see Jones et al. Br. J. Pharm. 93, 985 (1988)] decrease the preference of the animal for the black dimly lit side of the apparatus.
A. Naive male DBA2 mice (25-30) were housed on a reversed light/dark cycle and tested during the dark phase of the cycle under dim red light. The apparatus consisted of an open topped box (40cm long X 27 cm wide X 27 cm high) divided into a small area (2/5) and a large area (3/5) by a partition that extended 20 cm above the walls. There was a 7.5 X 7.5 cm opening in the partition at floor level. The small compartment was painted black and the large compartment white. The floor of each compartment was marked into 9 cm squares. The white compartment was illuminated by a 100 W tungsten bulb 17 cm above the box and the black compartment by a similarly placed 60 W red bulb.
Animals that had been injected with drug or vehicle were placed individually into the centre of the white area and their behavior observed during a 5 minute period by remote video recording. Four behavioral parameters were recorded every minute: the number of exploratory rears in the white and black sections, the number of line crossings in the black and white sections, the number of transitions between the two sections and the time spent in the black and white sections. Animals were tested in treatment groups of 8-10 and vehicle controls were run on each test day. Data were analysed by ANOVA and Dunnetts test.

The next test concerns Sprague Dawley rats. Nature of the test: Exploratory/locomotor activity in automated activity cages (novel environment). Format: in vivo. The method, then: B. The effects of CCK-8 and compound A on the exploratory behavior of the rat were examined in automated activity cages and by direct observation. It is known that exogenous CCK-8 decreases exploratory behavior in rats in a novel environment by accelerating the process of habituation. [See Crawley, Pharm. Biochem & Behav. 20, 23-27 (1984).]
Expt 1. Male Sprague Dawley rats were injected ([…].) with CCK-8 and immediately placed in automated activity cages. Activity was measured for 30 minutes past injection.
Expt 2. Male SD rats were injected (s.c.) with the CCK antagonist compound A (0.0001-10mg/kg) and immediately placed in the automated activity cages. […] As the anxiolytic drug chlordiazepoxide also increases spontaneous locomotor activity in rats in a novel environment [(McElroy et al. Psychopharm. 85: 224-226 (1985)] these findings are consistent with an anxiolytic action of Compound A useful in the treatment of panic disorder.

The test system of a further test is rats. Description: Exploration in a novel environment by direct observation (perspex cage). The format is in vivo. Conditions: 0.1 mg/kg, 15 minute period 15 minutes after treatment. The method, then:
Expt 3. In order to assess further the effect of Compound A on exploration in a novel environment, the motoric hehaviors of rats placed in a perspex cage was recorded by direct observation for a 15 minute period 15 minutes after treatment with Compound A.
Experimenters (unaware of the treatments the animals had received) recorded the frequency and duration of rearing, sniffing, grooming and cage crossing using a keypad interfaced to a BBC microcomputer.

In the case of `CN1C(=O)C(NC(=O)c2cc3ccccc3[nH]2)N=C(c2ccncc2)c2ccccc21` (racemic) [Example 17, 1,3-Dihydro-3(RS)-(2-indolecarbonylamino)-1-methyl-5-(4-pyridyl)-2H-1,4-benzodiazepin-2-one], the IC50 turned out to be 0.0068 µM on CCK Receptor (Pancreas) and 0.66 µM at Gastrin Receptor.

In the case of `CN1C(=O)C(NC(=O)c2cc3ccccc3[nH]2)N=C(c2ccccn2)c2ccccc21` (racemic) [Example 24, (RS)-N-(2,3-Dihydro-1-methyl-2-oxo-5-(2-pyridyl)-1H-1,4-benzodiazepin-3-yl)-1H-indole-2-carboxamide], the IC50 at CCK Receptor (Pancreas) stood at 0.00037 µM; on Gastrin Receptor, 0.16 µM.

Consider `Cc1cccc(NC(=O)NC2N=C(c3ccccn3)c3ccccc3N(CC(C)C)C2=O)c1` (racemic) [Example 25, (RS)-N-(2,3-Dihydro-1-(2-methylpropyl)-2-oxo-5-(2-pyridyl)-1H-1,4-benzodiazepin-3-yl)-N′-(3-methyl-phenyl)-urea], for which the results for the concentration for half-maximal inhibition (IC50) at CCK Receptor (Pancreas) and at Gastrin Receptor were 0.49 µM and 0.00067 µM, respectively.

Consider `CN1C(=O)C(NC(=O)Nc2ccc3c(c2)CCC3)N=C(c2ccccc2)c2ccccc21` (racemic) [Example 26, (RS)-N-(2,3-dihydro-1-methyl-2-oxo-5-phenyl-1H-1,4-benzodiazepin-3-yl)-N′-(5-indanyl)urea], for which the IC50 at CCK Receptor (Pancreas) was determined as 0.075 µM; on Gastrin Receptor (guinea pig gastric glands, 125I-gastrin, 25°C 30 minutes, read-out: IC50(µM) 125I-Gastrin Gastric Glands), 0.0019 µM.

In the case of `Cc1cccc(NC(=O)N[C@@H]2N=C(c3ccccc3)c3ccccc3N(C)C2=O)c1` [Example 5, (R)-N-(2,3-Dihydro-1-methyl-2-oxo-5-phenyl-1H-1,4-benzodiazepin-3-yl)-N′-(3-methylphenyl)-urea], in the test on DBA2 mice, the active dose range is 0.005 to 0.05 µg/kg. Also, the “difference in time spent in the black and white side” value with DBA2 mice (dose of 0.005 ug/kg) is “decreased”. Moreover, the “preference for rearing in the black side” value in the test with DBA2 mice (dose of 0.05 ug/kg) was “abolished”. The IC50 on CCK Receptor (Pancreas) (rat pancreas membranes, 125I-CCK-33, 37°C 30 minutes, read-out: IC50(µM) 125I-CCK Pancreas) worked out at 0.28 µM.

As to `Cc1cccc(NC(=O)N[C@H]2N=C(c3ccccc3)c3ccccc3N(C)C2=O)c1` [Example 11, (S)-N-(2,3-Dihydro-1-methyl-2-oxo-5-phenyl-1H-1,4-benzodiazepin-3-yl)-N′-(3-methylphonyl)-urea], the figures for the IC50 at CCK Receptor (Pancreas) and at Gastrin Receptor were 0.0041 µM and 0.092 µM, respectively.

Consider `CN1C(=O)[C@@H](NC(=O)c2cc3ccccc3[nH]2)N=C(c2ccccc2)c2ccccc21` [Example 16, 3(S)-(-)-1,3-Dihydro-3-(2-indolecarbonylamino)-1-methyl-5-phenyl-2H-1,4-benzodiazepin-2-one], for which the “preference for locomotion (line crossings) in the black side” value in the test on DBA2 mice (mice, 0.5, 5.0 and 500 ug/kg) was “abolished”. For the same molecule, the “difference in time spent in the black and white side” value in the test with DBA2 mice (5.0 and 500 ug/kg) was “abolished”. This molecule registered an active dose range with DBA2 mice of 0.05 to 5.0 µg/kg. Moreover, the “preference for rearing in the black side” value with DBA2 mice (doses of 0.05, 0.5, 5.0 and 500 ug/kg) was “significantly decreased”. Further, the “habituation and period of exploratory activity” value in the test on Sprague Dawley rats (s.c., 0.0001-10mg/kg, F(6,124) = 2.54, p<0.05) is “delayed habituation and prolonged the period of exploratory activity”. In the test on Sprague Dawley rats (s.c., 0.1 mg/kg, at 25 minutes, p<0.01), the levels of activity result is given as “significantly above controls”. The “activity, higher and lower doses” value with Sprague Dawley rats (s.c., doses higher and lower than 0.1 mg/kg, at 25 minutes, bell-shaped dose response curve) is “no significant effect”. In the test with rats (P<0.01), the Sniffing entry is recorded as “significantly increased” and the rearing result is given as “significantly increased”. Moreover, the cage crossing entry in the test on rats (P<0.05) is listed as “significantly increased”.

`CN1C(=O)[C@H](NC(=O)Nc2cc3c(cn2)[nH]c2ccccc23)N=C(c2ccccc2)c2ccccc21` [Example 22]: the IC50 at CCK Receptor (Pancreas) came to 0.0044 µM; at Gastrin Receptor it was 1.3 µM.

On to `CN1C(=O)[C@@H](NC(=O)c2cc3cc(O)ccc3[nH]2)N=C(c2ccccc2)c2ccccc21` [Example 27, 1,3-Dihydro-3-(5-hydroxyindole-2-carbonylamino)-1-methyl-5-phenyl-2H-1,4-benzodiapin-2-one], for which the IC50 at CCK Receptor (Pancreas) came out at 0.0033 µM.

In the case of “CCK-8 (DYMGWMDF; ends and bridges not checked; UniProt P06307 96-103, looked up) [reference compound]”, the locomotor activity entry with Sprague Dawley rats (i.p., 0.5-16µg/kg, 30 minutes post injection, F(6,87) = 3.21 (p<0.01)) is “dose-dependently decreased”.
